The subject of one data set is A-431. The data set is described as follows: Cytotoxicity against human A-431 cells assessed as inhibition of cell growth at 100 uM incubated for 24 hrs by MTT assay. The conditions noted are these: a-431, 24 h. Format: toxicity, cell-based. Background: Tetrazolium dyes change colour on reduction, which living cells bring about.
Data set [1] can be described thus: Retention time of the compound by RP-HPLC analysis. Format: physicochemical.
Data set [2] in a line: Cytotoxicity against human A-431 cells assessed as inhibition of cell growth at 100 uM incubated for 72 hrs by MTT assay. The format is toxicity, cell-based.
A short description of data set [3]: Biodistribution in Swiss mouse assessed as accumulation at radioactivity in liver at 3 MBq, iv and measured 1 hr post injection by gamma counter method. The format is ADME, organism-based. The conditions noted are these: in vivo.
Data set [4] is described as follows: Octanol/water partition coefficient, logP of compound by gamma counter analysis. Format: physicochemical.
Data set [5] is described as follows: Cytotoxicity against human A-431 cells assessed as inhibition of cell growth at 50 uM incubated for 24 hrs by MTT assay. The conditions noted are these: read-out: Activity. Format: toxicity, cell-based.

Take `COCCOc1cc2ncnc(Nc3cccc(-c4cn(CCOCCOCCOCCOCCOCCOCCNC(=S)Nc5ccc(CC6CN(CC(=O)O)CCN(CC(=O)O)CCN(CC(=O)O)CCN6CC(=O)O)cc5)nn4)c3)c2cc1OCCOC` (stereo not drawn): the Activity entry with A-431 is given as “Toxic”. In data set [1], this compound had a Retention_time of 18.5 min. Further, in data set [2], the inhibition at 72 h, 100 µM came to 90.9%.
As to `COCCOc1cc2ncnc(Nc3cccc(-c4cn(CCOCCOCCOCCN)nn4)c3)c2cc1OCCOC`, in data set [1], the Retention_time stood at 15.9 min.
Same read-out and setting: next, `COCCOc1cc2ncnc(Nc3cccc(-c4cn(CCCN)nn4)c3)c2cc1OCCOC`: 13.5 min.
With `COCCOc1cc2ncnc(Nc3cccc(-c4cn(CCCNC(=S)Nc5ccc(CC6CN(CC(=O)O)CCN(CC(=O)O)CCN(CC(=O)O)CCN6CC(=O)O)cc5)nn4)c3)c2cc1OCCOC` (stereo not drawn), the Activity result in the data set on A-431 is recorded as “Non-Toxic”. For the same compound, in data set [1], the Retention_time is 15.9 min. In addition, the inhibition at 72 h, 100 µM in data set [2] is 91.3%.
With `C#Cc1cccc(Nc2ncnc3cc(OCCOC)c(OCCO[11CH3])cc23)c1`, in data set [3], the Drug uptake was 10.55 % ID/g. Besides, the logP (usually the decadic logarithm of the partition coefficient of the neutral form, usually between octanol and water) in data set [4] stood at 3.2.
Consider `COCCOc1cc2ncnc(Nc3cccc(-c4cn(CCOCCOCCOCCNC(=S)Nc5ccc(CC6CN(CC(=O)O)CCN(CC(=O)O)CCN(CC(=O)O)CCN6CC(=O)O)cc5)nn4)c3)c2cc1OCCOC` (stereo not drawn), for which the Activity result with A-431 is “Toxic”. The compound further returned a Retention_time in data set [1] of 17.2 min. The inhibition at 72 h, 100 µM in data set [2] came out at 92.6%.
Turning to `COCCOc1cc2ncnc(Nc3cccc(-c4cn(CCOCCOCCOCCOCCOCCOCCN)nn4)c3)c2cc1OCCOC`, the Retention_time in data set [1] was 17.4 min.
For the compound `COCCOc1cc2ncnc(Nc3cccc(-c4cn(CC[18F])nn4)c3)c2cc1OCCOC`, the Drug uptake in data set [3] was determined as 17.1 % ID/g. For the same compound, the logP in data set [4] was determined as 2.36.
Consider `C#Cc1cccc(Nc2ncnc3cc(OCCOC)c(OCCOC)cc23)c1` [ERLOTINIB], for which the inhibition at 24 h, 50 µM in data set [5] amounted to 29.8%. Besides, the inhibition at 72 h, 100 µM in data set [2] turned out to be 92.7%.

The values are drawn from ChEMBL document CHEMBL5214944, “Preparation of radiolabeled erlotinib analogues and analysis of the effect of linkers” (Bioorg Med Chem Lett, 2022).
